Measurements taken from US6444617B1, “Fused-heterocycle dicarboxylic acid diamide derivatives or salts thereof, herbicide and usage thereof” (Nihon Nohyaku Co., Ltd., priority 1998, dated 2002).

Columns and labels:
Assay type in all cases: in vivo
[1] = tested on: soybean plant; test: Test Example 4: phytotoxicity to upland crop plants, treatment after emergence; conditions: dosage 5 kg/ha, sprayed after emergence, judged 14 days after treatment
Procedure, shortened: (§1)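 Scores of weed-killing rate, with crop phytotoxicity, come from inspection 14 days after plants in soil vats, grown to specified leaf stages, are sprayed with a formulation holding the compound at a prescribed concentration.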

[2] = tested on: wheat; test: as above; conditions: dosage 5 kg/ha, sprayed after emergence, judged 14 days after treatment
Procedure, shortened: as §1

[3] = tested on: soybean plant (So); test: Test Example 3: phytotoxicity to upland crop plants, treatment before emergence; conditions: dosage 5 kg/ha
Procedure, shortened: (§2)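 Crop injury to soybean and wheat was judged on a phytotoxicity scale 14 days after a pre-emergence spray of a liquid formulation at a prescribed concentration of compound.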

[4] = tested on: wheat (Wh); test: as above; conditions: dosage 5 kg/ha
Procedure, shortened: as §2

[5] = tested on: bulrush (Scirpus juncoides Roxb.); test: Test Example 2: herbicidal effect on paddy field weeds after emergence; conditions: Dosage 5 kg/ha; one-leaved stage; 21 days after treatment
Procedure, shortened: (§3)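 Weeds were sown in 1/10000 are pots of soil flooded to paddy conditions and grown to the one-leaf stage, then the soil was treated with a solution of compound at a predetermined dosage.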

[6] = tested on: barnyard grass (Echinochloa crus-galli Beauv.); test: as above; conditions: Dosage 5 kg/ha; one-leaved stage; 21 days after treatment
Procedure, shortened: as §3

[7] = tested on: monochoria (Monochoria vaginalis Presl); test: as above; conditions: Dosage 5 kg/ha; one-leaved stage; 21 days after treatment
Procedure, shortened: as §3

[8] = tested on: barnyard grass (Echinochloa crus-galli Beauv.), Ec; test: Test Example 4: herbicidal effect on upland weeds after emergence; conditions: dosage 5 kg/ha; sprayed after emergence; judged 14 days after treatment
Procedure, shortened: (§4)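 Post-emergence foliar spray at a prescribed concentration, applied once the sown weeds and soybean reached defined leaf stages in soil vats; herbicidal effect and soybean injury scored after 14 days.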

[9] = tested on: forxtail grass (Alopecurus aequalis var. amurensis Ohwi), Am; test: as above; conditions: dosage 5 kg/ha; sprayed after emergence; judged 14 days after treatment
Procedure, shortened: as §4

[10] = tested on: velvetleaf (Abutilon theophtasti L.), At; test: as above; conditions: dosage 5 kg/ha; sprayed after emergence; judged 14 days after treatment
Procedure, shortened: as §4

[11] = tested on: cleavers (Galium aparine L.), Ga; test: as above; conditions: dosage 5 kg/ha; sprayed after emergence; judged 14 days after treatment
Procedure, shortened: as §4

[12] = tested on: cocklebur (Xanthium strumarium L.), Xs; test: as above; conditions: dosage 5 kg/ha; sprayed after emergence; judged 14 days after treatment
Procedure, shortened: as §4

[13] = tested on: bird's eye speedwell (Veronica persica Poir.), Vp; test: as above; conditions: dosage 5 kg/ha; sprayed after emergence; judged 14 days after treatment
Procedure, shortened: as §4

[14] = tested on: barnyard grass (Echinochloa crus-galli Beauv.), Ec; test: Test Example 3: herbicidal effect on upland weeds before emergence; conditions: dosage 5 kg/ha
Procedure, shortened: (§5)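 Steps: sow upland weed seeds; spray liquid formulation of active ingredient at prescribed concentration prior to emergence; after 14 days, calculate weed-killing rate; judge herbicidal effect.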

[15] = tested on: forxtail grass (Alopecurus aequalis var. amurensis Ohwi), Am; test: as above; conditions: foxtail grass, dosage 5 kg/ha
Procedure, shortened: as §5

[16] = tested on: velvetleaf (Abutilon theophtasti L.), At; test: as above; conditions: dosage 5 kg/ha
Procedure, shortened: as §5

[17] = tested on: cleavers (Galium aparine L.), Ga; test: as above; conditions: dosage 5 kg/ha
Procedure, shortened: as §5

[18] = tested on: cocklebur (Xanthium strumarium L.), Xs; test: as above; conditions: dosage 5 kg/ha
Procedure, shortened: as §5

[19] = tested on: bird's eye speedwell (Veronica persica Poir.), Vp; test: as above; conditions: dosage 5 kg/ha
Procedure, shortened: as §5

[20] = tested on: bulrush (Scirpus juncoides Roxb.); test: Test Example 1: herbicidal effect on paddy field weeds before emergence; conditions: Dosage 5 kg/ha
Procedure, shortened: (§6)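 Seeds of both weeds, still ungerminated, in soil pots held under paddy conditions received a set dose of test solution as soil treatment. After twenty-one days, control relative to untreated pots was calculated and rated on a scoring scale.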

[21] = tested on: barnyard grass (Echinochloa crus-galli Beauv.); test: as above; conditions: Dosage 5 kg/ha
Procedure, shortened: as §6

CCc1ccc(Cl)c(CC)c1NC(=O)c1cc2c(nc1C(=O)NC1CCCC1)COCC2 [compound 447]
Phytotoxicity So [1]: 4 (Crop-killing rate is 90-99%.) | Phytotoxicity Wh [2]: 5 (Crop-killing rate is 100%.) | Phytotoxicity So [3]: 4 (Crop-killing rate is 90-99%.) | Phytotoxicity Wh [4]: 5 (Crop-killing rate is 100%.) | Post-emergence treatment Bulrush (herbicidal effect) [5]: 5 (Weed-killing rate is 100%.) | Post-emergence treatment Barnyard grass (herbicidal effect) [6]: 5 (Weed-killing rate is 100%.) | Post-emergence treatment Monochoria (herbicidal effect) [7]: 5 (Weed-killing rate is 100%.) | Herbicidal effect Ec [8]: 5 (Weed-killing rate is 100%.) | Herbicidal effect Am [9]: 5 (Weed-killing rate is 100%.) | Herbicidal effect At [10]: 5 (Weed-killing rate is 100%.) | Herbicidal effect Ga [11]: 5 (Weed-killing rate is 100%.) | Herbicidal effect Xs [12]: 5 (Weed-killing rate is 100%.) | Herbicidal effect Vp [13]: 5 (Weed-killing rate is 100%.) | Herbicidal effect Ec [14]: 5 (Weed-killing rate is 100%.) | Herbicidal effect Am [15]: 5 (Weed-killing rate is 100%.) | Herbicidal effect At [16]: 5 (Weed-killing rate is 100%.) | Herbicidal effect Ga [17]: 5 (Weed-killing rate is 100%.) | Herbicidal effect Xs [18]: 5 (Weed-killing rate is 100%.) | Herbicidal effect Vp [19]: 5 (Weed-killing rate is 100%.) | Pre-emergence treatment Bulrush (herbicidal effect) [20]: 5 (Weed-killing rate is 100%.) | Pre-emergence treatment Barnyard grass (herbicidal effect) [21]: 5 (Weed-killing rate is 100%.)

CCNC(=O)c1nc2ccc(O)cc2cc1C(=O)Nc1c(CC)ccc(Cl)c1CC [compound 275]
Phytotoxicity So [1]: 1 (Crop-killing rate is 1-39%.) | Phytotoxicity Wh [2]: 2 (Crop-killing rate is 40-69%.) | Phytotoxicity So [3]: 0 (Crop-killing rate is 0-20% (No Phytotoxicity).) | Phytotoxicity Wh [4]: 1 (Crop-killing rate is 1-39%.) | Post-emergence treatment Bulrush (herbicidal effect) [5]: 4 (Weed-killing rate is 90-99%.) | Post-emergence treatment Barnyard grass (herbicidal effect) [6]: 5 (Weed-killing rate is 100%.) | Post-emergence treatment Monochoria (herbicidal effect) [7]: 5 (Weed-killing rate is 100%.) | Herbicidal effect Ec [8]: 4 (Weed-killing rate is 90-99%.) | Herbicidal effect Am [9]: 3 (Weed-killing rate is 70-89%.) | Herbicidal effect At [10]: 4 (Weed-killing rate is 90-99%.) | Herbicidal effect Ga [11]: 3 (Weed-killing rate is 70-89%.) | Herbicidal effect Xs [12]: 3 (Weed-killing rate is 70-89%.) | Herbicidal effect Vp [13]: 4 (Weed-killing rate is 90-99%.) | Herbicidal effect Ec [14]: 4 (Weed-killing rate is 90-99%.) | Herbicidal effect Am [15]: 3 (Weed-killing rate is 70-89%.) | Herbicidal effect At [16]: 4 (Weed-killing rate is 90-99%.) | Herbicidal effect Ga [17]: 3 (Weed-killing rate is 70-89%.) | Herbicidal effect Xs [18]: 3 (Weed-killing rate is 70-89%.) | Herbicidal effect Vp [19]: 4 (Weed-killing rate is 90-99%.) | Pre-emergence treatment Bulrush (herbicidal effect) [20]: 5 (Weed-killing rate is 100%.) | Pre-emergence treatment Barnyard grass (herbicidal effect) [21]: 5 (Weed-killing rate is 100%.)

Cc1c(Cl)cccc1NC(=O)c1cc2c(nc1C(=O)NCC(C)C)SCCC2 [compound 527]
Phytotoxicity So [1]: 5 (Crop-killing rate is 100%.) | Phytotoxicity Wh [2]: 5 (Crop-killing rate is 100%.) | Phytotoxicity So [3]: 5 (Crop-killing rate is 100%.) | Phytotoxicity Wh [4]: 5 (Crop-killing rate is 100%.) | Post-emergence treatment Bulrush (herbicidal effect) [5]: 5 (Weed-killing rate is 100%.) | Post-emergence treatment Barnyard grass (herbicidal effect) [6]: 5 (Weed-killing rate is 100%.) | Post-emergence treatment Monochoria (herbicidal effect) [7]: 5 (Weed-killing rate is 100%.) | Herbicidal effect Ec [8]: 5 (Weed-killing rate is 100%.) | Herbicidal effect Am [9]: 5 (Weed-killing rate is 100%.) | Herbicidal effect At [10]: 5 (Weed-killing rate is 100%.) | Herbicidal effect Ga [11]: 5 (Weed-killing rate is 100%.) | Herbicidal effect Xs [12]: 4 (Weed-killing rate is 90-99%.) | Herbicidal effect Vp [13]: 5 (Weed-killing rate is 100%.) | Herbicidal effect Ec [14]: 5 (Weed-killing rate is 100%.) | Herbicidal effect Am [15]: 5 (Weed-killing rate is 100%.) | Herbicidal effect At [16]: 5 (Weed-killing rate is 100%.) | Herbicidal effect Ga [17]: 5 (Weed-killing rate is 100%.) | Herbicidal effect Xs [18]: 4 (Weed-killing rate is 90-99%.) | Herbicidal effect Vp [19]: 5 (Weed-killing rate is 100%.) | Pre-emergence treatment Bulrush (herbicidal effect) [20]: 5 (Weed-killing rate is 100%.) | Pre-emergence treatment Barnyard grass (herbicidal effect) [21]: 5 (Weed-killing rate is 100%.)

CCCNC(=O)c1nc2ccccc2cc1C(=O)Nc1c(CC)ccc(Cl)c1CC [359-3]
Phytotoxicity So [1]: 3 (Crop-killing rate is 70-89%.) | Phytotoxicity Wh [2]: 2 (Crop-killing rate is 40-69%.) | Phytotoxicity So [3]: 0 (Crop-killing rate is 0-20% (No Phytotoxicity).) | Phytotoxicity Wh [4]: 0 (Crop-killing rate is 0-20% (No Phytotoxicity).) | Post-emergence treatment Bulrush (herbicidal effect) [5]: 5 (Weed-killing rate is 100%.) | Post-emergence treatment Barnyard grass (herbicidal effect) [6]: 5 (Weed-killing rate is 100%.) | Post-emergence treatment Monochoria (herbicidal effect) [7]: 5 (Weed-killing rate is 100%.) | Herbicidal effect Ec [8]: 5 (Weed-killing rate is 100%.) | Herbicidal effect Am [9]: 5 (Weed-killing rate is 100%.) | Herbicidal effect At [10]: 5 (Weed-killing rate is 100%.) | Herbicidal effect Ga [11]: 5 (Weed-killing rate is 100%.) | Herbicidal effect Xs [12]: 5 (Weed-killing rate is 100%.) | Herbicidal effect Vp [13]: 5 (Weed-killing rate is 100%.) | Herbicidal effect Ec [14]: 5 (Weed-killing rate is 100%.) | Herbicidal effect Am [15]: 5 (Weed-killing rate is 100%.) | Herbicidal effect At [16]: 5 (Weed-killing rate is 100%.) | Herbicidal effect Ga [17]: 5 (Weed-killing rate is 100%.) | Herbicidal effect Xs [18]: 5 (Weed-killing rate is 100%.) | Herbicidal effect Vp [19]: 5 (Weed-killing rate is 100%.) | Pre-emergence treatment Bulrush (herbicidal effect) [20]: 5 (Weed-killing rate is 100%.) | Pre-emergence treatment Barnyard grass (herbicidal effect) [21]: 5 (Weed-killing rate is 100%.)

CCCNC(=O)c1nc2cc(F)ccc2cc1C(=O)Nc1c(CC)ccc(Cl)c1CC [Compound No. 158, 3-(3-Chloro-2,6-diethylphenyl)-aminocarbonyl-7-fluoro-2-quinolinecarboxylic Acid n-Propylamide]
Phytotoxicity So [1]: 2 (Crop-killing rate is 40-69%.) | Phytotoxicity Wh [2]: 4 (Crop-killing rate is 90-99%.) | Phytotoxicity So [3]: 1 (Crop-killing rate is 1-39%.) | Phytotoxicity Wh [4]: 4 (Crop-killing rate is 90-99%.) | Post-emergence treatment Bulrush (herbicidal effect) [5]: 5 (Weed-killing rate is 100%.) | Post-emergence treatment Barnyard grass (herbicidal effect) [6]: 5 (Weed-killing rate is 100%.) | Post-emergence treatment Monochoria (herbicidal effect) [7]: 5 (Weed-killing rate is 100%.) | Herbicidal effect Ec [8]: 5 (Weed-killing rate is 100%.) | Herbicidal effect Am [9]: 4 (Weed-killing rate is 90-99%.) | Herbicidal effect At [10]: 5 (Weed-killing rate is 100%.) | Herbicidal effect Ga [11]: 5 (Weed-killing rate is 100%.) | Herbicidal effect Xs [12]: 4 (Weed-killing rate is 90-99%.) | Herbicidal effect Vp [13]: 5 (Weed-killing rate is 100%.) | Herbicidal effect Ec [14]: 5 (Weed-killing rate is 100%.) | Herbicidal effect Am [15]: 4 (Weed-killing rate is 90-99%.) | Herbicidal effect At [16]: 5 (Weed-killing rate is 100%.) | Herbicidal effect Ga [17]: 5 (Weed-killing rate is 100%.) | Herbicidal effect Xs [18]: 4 (Weed-killing rate is 90-99%.) | Herbicidal effect Vp [19]: 5 (Weed-killing rate is 100%.) | Pre-emergence treatment Bulrush (herbicidal effect) [20]: 5 (Weed-killing rate is 100%.) | Pre-emergence treatment Barnyard grass (herbicidal effect) [21]: 5 (Weed-killing rate is 100%.)
